This is an account of results in patent US20240109855A1, “ANTI-QUORUM SENSING, ANTI-BIOFILM, AND INFLAMMATION ATTENUATING COMPOUNDS, COMPOSITIONS, AND METHODS OF USING SAME” (priority 2021, published 2024).

Each structure is given as a SMILES string. “Also recorded” adds a separate entry of the source.

One data set deals with Staphylococcus aureus. The data set is described as follows: Diffusion discs test, Staphylococcus aureus. Format: cell-based. The conditions noted are these: discs with 40 mM of compound in 20 μl solvent. The method, then:
(§1) All derivatives were dissolved in acetonitrile to a final concentration of 40 mM. Twenty (20) μl were loaded onto Whatman filter paper discs and dried. Bacillus subtilis, Staphylococcus aureus, and Acinetobacter baumannii were grown in LB (Lenox) O.N. One hundred (100) μl from the starter culture was plated on LB agar (Miller) dishes. Streptococcus sobrinus, and Streptococcus mutans grown in Brain Heary Infusion (BHI, Himedia) O.N. were similarly plated on BHI agar dishes. Discs were laid and incubated O.N. in 37° C. and the diameter of inhibition of bacterial growth was measured.

The test system of the next data set is Bacillus subtilis. The data set is described as follows: Diffusion discs test, Bacillus subtilis. Type of data set: cell-based. The conditions noted are these: discs with 40 mM of compound in 20 μl solvent. How it is done: as §1
Another data set deals with PA01. The data set is described as follows: Diffusion discs test, PA01. Type of data set: cell-based, P. aeruginosa. Also on record: key: —: no activity. The conditions noted are these: discs with 40 mM of compound in 20 μl solvent.
In another data set the test system is NF-kB. The data set is described as follows: NF-kB-luciferase reporter gene assay in L428 cells. Also: key: +: active; −: inactive. To be noted: Table 6 summary. Type of data set: cell-based, human. The method, then:
FIG. 7 includes a vertical bar graph showing a dose response of NF-kB activation according to an NF-kB reporter gene luciferase assay. L428 cells were stably transfected with the NF-kB luciferase reporter gene. The cells were incubated with the compounds at different concentrations for 2 hours. […] The results represent the percentage of NF-kB activation as compared to vehicle (DMSO) treated cells. All samples were normalized to protein concentration. Mean+SD, Two-way ANOVA and Tukey's multiple comparison test. 95% confidence interval (p-values *≤0.0332, **≤0.0021, ***≤0.0002).
L428 cells stable transfectants with the luciferase NF-kB-Luc reporter gene were generated previously described (Ozer et al., 2009), and were maintained in 500 μg/ml of G418 (G418 disulfate salt, Sigma-Aldrich). The cells (5×10^5 /well in triplicate) were incubated for 2 hrs. in 1 ml of medium containing the solvent (DMSO) or different concentrations of the molecules tested. Cells were then harvested, lysed, and monitored by a luciferase reporter assay kit (Promega) according to the manufacturer's instructions. Measurements were carried out using a luminometer (Promega, GLOMAX™ 20/20 Luminometer). Data were normalized to the protein concentration in each lysate as measured by the Bradford method (BioRad) and normalized to the control. Experiments were repeated at least three times.

Data set [1] deals with gram-positive and gram-negative bacteria. Description: Antibacterial activity, overall statement (diffusion discs test). Type of data set: cell-based. How it is done:
as §1
The antibacterial activities of derivatives showing QSI are outlined in Table 4. […] Similar to that idea, synthetic derivatives of furanon (product of marine algae) shown in-vivo QSI activity without antibacterial activity followed by immune response of the infected animal. Phenolic compounds decrease QS and virulence in PA01 and Chromobacterium violaceum. There is increasing number of studies, searching for compounds that targeting non-vital processes to combat bacteria.

In data set [2] the test system is L428 cells. The data set is described as follows: in vitro. In outline: (§2)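 30,000 cells/well exposed to coumaperine derivatives at varying concentrations or DMSO vehicle for 48 h at 37 °C, 5% CO2, then XTT added for 2 h. Absorbance at 450 nm minus 650 nm and blank, normalized to DMSO-treated cells (100% viability); triplicate, two independent tests, mean+SD.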
A further data set is described as follows: in vitro. The conditions noted are these: human, LC50. In outline:
as §2

Data set [3] concerns L428 cells. The conditions noted are these: cited from earlier work.
The subject of data set [4] is Agrobacterium tumefaciens (KYC55). Description: Quorum sensing inhibition test with bio-reporter KYC55 (TLC overlay). As to Degree of QSI of KYC55: key: −: no inhibition; +: low inhibition; ++: medium inhibition; +++: strong inhibition. Type of data set: cell-based. In outline:
(§3)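 Compounds (40 mM in acetonitrile, 20 μl) were spotted on TLC and overlaid with soft agar reporter cultures, incubated overnight at 30 °C. CV026 was in LB with 500 nM 3-oxo-C6 (purple pigment), and KYC55 was in AT medium with 5 nM 3-oxo-C8 and 60 μg/ml X-gal (blue). Inhibition zone diameter was measured.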

The next data set concerns Streptococcus sobrinus. The data set is described as follows: Diffusion discs test, Streptococcus sobrinus. Format: cell-based. To be noted: discs with 40 mM of compound in 20 μl solvent. How it is done:
as §1

Data set [5] concerns Chromobacterium violaceum (CV026). The data set is described as follows: Quorum sensing inhibition test with bio-reporter CV026 (TLC overlay). As to Degree of QSI of CV026: key: −: no inhibition; +: low inhibition; ++: medium inhibition; +++: strong inhibition. Format: cell-based. The procedure, abridged:
as §3

A further data set has as its system Streptococcus mutans. The data set is described as follows: Diffusion discs test, Streptococcus mutans. The conditions noted are these: discs with 40 mM of compound in 20 μl solvent. Also on record: key: —: no activity. Type of data set: cell-based. How it is done:
as §1

The next data set concerns Acinetobacter baumannii. The data set is described as follows: Diffusion discs test, Acinetobacter baumannii. Also on record: key: —: no activity. The conditions noted are these: discs with 40 mM of compound in 20 μl solvent. Format: cell-based. The method, then: as §1
The subject of data set [6] is quorum sensing (CV026 and KYC55). The data set is described as follows: Quorum sensing inhibition, overall statement over the bio-reporter bacteria. Type of data set: cell-based. How it is done: TLC preparation: all derivatives were dissolved in 100% acetonitrile to a concentration of 40 mM. Then placed 20 μlon the same spot on the TLC and let the solvent evaporate before use. CV026: few colonies were transferred to liquid LB (Lenox) for overnight incubation at 30° C. in a 45 degree in orbital shaker. At the O.D. 0.8 3 ml of the starter was added to preheated soft LB agar containing 500 nM of 3-oxo-C6 (Sigma-Aldrich). The mixture was then loaded on the TLC in a glass plate for O.N. incubation in 30° C. The next day inhibition zone was measured, while QS is taking place bacteria produce purple pigment, and when QS is inhibited no pigment is produced. KYC55 (pJZ372) (pJZ384) (pJZ410): 20 μl from the frozen stock into 25 ml AT media (AT buffer×20: 1.57 M KH2PO4 pH=7.3. AT salts mix×20: 300 mM (NH4)2SO4, 13 mM MgSO4, 1.4 mM CaCl2, 0.4 mM FeSO4·7H2O, 0.26 mM MnSO4·H2O. AT media: 50 ml×20 AT-buffer, 50 ml×20 AT-salts, 10 ml 50% (w/v) glucose, add 890 ml to final volume of 1 liter.) For O.N. at 30° C. in an orbital shaker. Into preheated water agar with 25 ml AT-buffer, and 60 μg/ml X-gal and 5 nM 3-oxo-c8 (both from Sigma-Aldrich) 25 ml of the starter was added. Then, that mixture was loaded on the TLC in glass plate for O.N. incubation in 30° C. The next day the inhibition zone was measured. The bacteria produce blue pigment during QS and when QS is inhibited no pigment is produced. KYC55 (pJZ372) (pJZ384) (pJZ410) preservation in tetracycline (1 μg/ml), spectinomycin (100 μg/ml), gentamicin (100 μg/ml) (all antibiotics from Sigma Aldrich) in AT media O.N. then centrifuged and suspend in 15% glycerol frozen and maintained at −80° C.
All the synthesized compounds were evaluated for quorum sensing inhibition against two bioreporter bacteria strains, Chromobacterium violaceum (CV026) and Agrobacterium tumefaciens (KYC55) and the results are summarized in Table 1.

The mark [7] stands for this setting: Table 1, coumaperine derivatives, 40 mM in ~20 μL acetonitrile dried on TLC plate, overnight, color intensity.

For `O=C(/C=C/C=C/c1ccccc1)N1CCCCC1` [CP-9, (2E,4E)-5-phenyl-1-(piperidin-1-yl)penta-2,4-dien-1-one], in the data set with Staphylococcus aureus, the “Staphylococcus aureus, diameter of growth inhibition” value is reported as 9 mm. Moreover, the “Bacillus subtilis, diameter of growth inhibition” value with Bacillus subtilis is reported as 8 mm. Besides, the “PA01, diameter of growth inhibition” value in the data set on PA01 is on record as “—”. Further, in the data set on NF-kB, the Anti-inflammatory entry was “+”. In data set [1] (Table 6 summary), the Antibacterial entry is “+”. For the same molecule, the “Antibacterial activity, in words” value in [1] (running text) was “showed antibacterial activity; also recorded: inhibit bacterial growth of the three gram-positive bacteria; also recorded: some antibiotic activity”. Besides, the Cytotoxic entry in the data set on L428 cells [2] is given as “+”. In the data set on L428 cells [2] (human, 48 h), this molecule returned a CC50 of 24.7 µM. The same molecule showed a CC50 at 48 h in “in vitro” of 24.7 µM. In the data set on L428 cells [3], the “Cytotoxicity, previously reported” value was “cytotoxic”. Moreover, in data set [4] (setting [7]), the “Degree of QSI of KYC55” value is “+”. Also, the “QSI activity against KYC55, in words” value in data set [4] (running text) is given as “low”. In addition, the “Streptococcus sobrinus, diameter of growth inhibition” value with Streptococcus sobrinus is recorded as 9 mm. Moreover, in data set [5] (setting [7]), the “Degree of QSI of CV026” value is recorded as “++”. Further, the “QSI activity against CV026, in words” value in data set [5] (running text) was “moderate”. The “Streptococcus mutans, diameter of growth inhibition” value in the data set on Streptococcus mutans is “—”. Besides, the “Acinetobacter baumannii, diameter of growth inhibition” value in the data set on Acinetobacter baumannii is on record as “—”. The QSI entry in [6] (Table 6 summary) is given as “+”. Moreover, the “QSI activity overall, in words” value in data set [6] (running text) was “anti QS activity”.
